Test results as given in PubChem BioAssay (NCI).
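The compound was tested at five concentrations on cells cultured in 96-well plates, with a 48-hour exposure period. TGI marks complete inhibition of growth.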

The molecules below were run on SNB-19 CNS (assay: NCI anticancer screen, dose series, 48 h).

| SMILES | TGI [µM] |
| --- | --- |
| COc1cc(/C=C2\C[C@H]3[C@@H]4CCc5cc(O)ccc5[C@H]4CC[C@]3(C)C2=O)cc(OC)c1OC | 47.1 |
| COc1ccc(N2C(=O)CC(C3CC(C(C)(C)C)CCC3=O)C2=O)cc1 (stereo unspecified) | > 100 |
| CC(=O)Nc1ccc(N2C(=O)/C(=C\c3cccc(Oc4ccccc4)c3)S(=O)(=O)C2c2ccccc2)cc1 (stereo unspecified) | > 100 |
| O=c1cnn(C/C=C/CBr)c(=O)[nH]1 | 79.7 |
| CCCCS(=O)CCC(N)P(=O)(O)O (stereo unspecified) | > 100 |
| O=C(O)CCC(=O)c1ccc[nH]1 | > 100 |

These molecules were tested on NCI-H226 lung (assay: NCI anticancer screen, dose series, 48 h).

| SMILES | TGI [µM] |
| --- | --- |
| C1C2CC3CC1CC(Nc1nc(NC45CC6CC(CC(C6)C4)C5)nc(NC45CC6CC(CC(C6)C4)C5)n1)(C2)C3 | > 100 |
| COc1cc(/C=C2\C[C@H]3[C@@H]4CCc5cc(O)ccc5[C@H]4CC[C@]3(C)C2=O)cc(OC)c1OC | 32 |
| COc1ccc(N2C(=O)CC(C3CC(C(C)(C)C)CCC3=O)C2=O)cc1 (stereo unspecified) | > 100 |
| CC(=O)Nc1ccc(N2C(=O)/C(=C\c3cccc(Oc4ccccc4)c3)S(=O)(=O)C2c2ccccc2)cc1 (stereo unspecified) | > 100 |
| O=c1cnn(C/C=C/CBr)c(=O)[nH]1 | 34.8 |
| CCCCS(=O)CCC(N)P(=O)(O)O (stereo unspecified) | > 100 |
| O=C(O)CCC(=O)c1ccc[nH]1 | > 100 |

The molecules below were run on A498 renal (assay: NCI anticancer screen, dose series, 48 h).

| SMILES | TGI [µM] |
| --- | --- |
| C1C2CC3CC1CC(Nc1nc(NC45CC6CC(CC(C6)C4)C5)nc(NC45CC6CC(CC(C6)C4)C5)n1)(C2)C3 | > 100 |
| COc1cc(/C=C2\C[C@H]3[C@@H]4CCc5cc(O)ccc5[C@H]4CC[C@]3(C)C2=O)cc(OC)c1OC | 87.5 |
| CC(=O)Nc1ccc(N2C(=O)/C(=C\c3cccc(Oc4ccccc4)c3)S(=O)(=O)C2c2ccccc2)cc1 (stereo unspecified) | > 100 |
| O=c1cnn(C/C=C/CBr)c(=O)[nH]1 | 31.7 |
| O=C(O)CCC(=O)c1ccc[nH]1 | > 100 |

Each molecule was assayed on PC-3 prostate (assay: NCI anticancer screen, dose series, 48 h).

| SMILES | TGI [µM] |
| --- | --- |
| C1C2CC3CC1CC(Nc1nc(NC45CC6CC(CC(C6)C4)C5)nc(NC45CC6CC(CC(C6)C4)C5)n1)(C2)C3 | > 100 |
| COc1cc(/C=C2\C[C@H]3[C@@H]4CCc5cc(O)ccc5[C@H]4CC[C@]3(C)C2=O)cc(OC)c1OC | 25.5 |
| COc1ccc(N2C(=O)CC(C3CC(C(C)(C)C)CCC3=O)C2=O)cc1 (stereo unspecified) | > 100 |
| CC(=O)Nc1ccc(N2C(=O)/C(=C\c3cccc(Oc4ccccc4)c3)S(=O)(=O)C2c2ccccc2)cc1 (stereo unspecified) | > 100 |
| O=c1cnn(C/C=C/CBr)c(=O)[nH]1 | 36.4 |
| CCCCS(=O)CCC(N)P(=O)(O)O (stereo unspecified) | > 100 |
| O=C(O)CCC(=O)c1ccc[nH]1 | > 100 |

The molecules below were run on U251 CNS (assay: NCI anticancer screen, dose series, 48 h).

| SMILES | TGI [µM] |
| --- | --- |
| C1C2CC3CC1CC(Nc1nc(NC45CC6CC(CC(C6)C4)C5)nc(NC45CC6CC(CC(C6)C4)C5)n1)(C2)C3 | > 100 |
| COc1cc(/C=C2\C[C@H]3[C@@H]4CCc5cc(O)ccc5[C@H]4CC[C@]3(C)C2=O)cc(OC)c1OC | 38.1 |
| COc1ccc(N2C(=O)CC(C3CC(C(C)(C)C)CCC3=O)C2=O)cc1 (stereo unspecified) | > 100 |
| CC(=O)Nc1ccc(N2C(=O)/C(=C\c3cccc(Oc4ccccc4)c3)S(=O)(=O)C2c2ccccc2)cc1 (stereo unspecified) | > 100 |
| O=c1cnn(C/C=C/CBr)c(=O)[nH]1 | 28.8 |
| CCCCS(=O)CCC(N)P(=O)(O)O (stereo unspecified) | > 100 |
| O=C(O)CCC(=O)c1ccc[nH]1 | > 100 |

These molecules were tested on BT-549 breast (assay: NCI anticancer screen, dose series, 48 h).

| SMILES | TGI [µM] |
| --- | --- |
| C1C2CC3CC1CC(Nc1nc(NC45CC6CC(CC(C6)C4)C5)nc(NC45CC6CC(CC(C6)C4)C5)n1)(C2)C3 | > 100 |
| COc1cc(/C=C2\C[C@H]3[C@@H]4CCc5cc(O)ccc5[C@H]4CC[C@]3(C)C2=O)cc(OC)c1OC | 42.6 |
| COc1ccc(N2C(=O)CC(C3CC(C(C)(C)C)CCC3=O)C2=O)cc1 (stereo unspecified) | > 100 |
| CC(=O)Nc1ccc(N2C(=O)/C(=C\c3cccc(Oc4ccccc4)c3)S(=O)(=O)C2c2ccccc2)cc1 (stereo unspecified) | > 100 |
| O=c1cnn(C/C=C/CBr)c(=O)[nH]1 | 19.4 |
| CCCCS(=O)CCC(N)P(=O)(O)O (stereo unspecified) | > 100 |
| O=C(O)CCC(=O)c1ccc[nH]1 | > 100 |

What follows are molecules tested on MDA-MB-231 breast (assay: NCI anticancer screen, dose series, 48 h).

| SMILES | TGI [µM] |
| --- | --- |
| C1C2CC3CC1CC(Nc1nc(NC45CC6CC(CC(C6)C4)C5)nc(NC45CC6CC(CC(C6)C4)C5)n1)(C2)C3 | > 100 |
| COc1cc(/C=C2\C[C@H]3[C@@H]4CCc5cc(O)ccc5[C@H]4CC[C@]3(C)C2=O)cc(OC)c1OC | 43.9 |
| COc1ccc(N2C(=O)CC(C3CC(C(C)(C)C)CCC3=O)C2=O)cc1 (stereo unspecified) | > 100 |
| CC(=O)Nc1ccc(N2C(=O)/C(=C\c3cccc(Oc4ccccc4)c3)S(=O)(=O)C2c2ccccc2)cc1 (stereo unspecified) | > 100 |
| O=c1cnn(C/C=C/CBr)c(=O)[nH]1 | 45.6 |
| O=C(O)CCC(=O)c1ccc[nH]1 | > 100 |

What follows are molecules tested on OVCAR-8 ovarian (assay: NCI anticancer screen, dose series, 48 h).

| SMILES | TGI [µM] |
| --- | --- |
| C1C2CC3CC1CC(Nc1nc(NC45CC6CC(CC(C6)C4)C5)nc(NC45CC6CC(CC(C6)C4)C5)n1)(C2)C3 | > 65.5 |
| COc1cc(/C=C2\C[C@H]3[C@@H]4CCc5cc(O)ccc5[C@H]4CC[C@]3(C)C2=O)cc(OC)c1OC | 30.1 |
| COc1ccc(N2C(=O)CC(C3CC(C(C)(C)C)CCC3=O)C2=O)cc1 (stereo unspecified) | > 100 |
| CC(=O)Nc1ccc(N2C(=O)/C(=C\c3cccc(Oc4ccccc4)c3)S(=O)(=O)C2c2ccccc2)cc1 (stereo unspecified) | > 100 |
| O=c1cnn(C/C=C/CBr)c(=O)[nH]1 | 54 |
| CCCCS(=O)CCC(N)P(=O)(O)O (stereo unspecified) | > 100 |
| O=C(O)CCC(=O)c1ccc[nH]1 | > 100 |

What follows are molecules tested on SW-620 colon (assay: NCI anticancer screen, dose series, 48 h).

| SMILES | TGI [µM] |
| --- | --- |
| C1C2CC3CC1CC(Nc1nc(NC45CC6CC(CC(C6)C4)C5)nc(NC45CC6CC(CC(C6)C4)C5)n1)(C2)C3 | > 100 |
| COc1cc(/C=C2\C[C@H]3[C@@H]4CCc5cc(O)ccc5[C@H]4CC[C@]3(C)C2=O)cc(OC)c1OC | 34.1 |
| COc1ccc(N2C(=O)CC(C3CC(C(C)(C)C)CCC3=O)C2=O)cc1 (stereo unspecified) | > 100 |
| CC(=O)Nc1ccc(N2C(=O)/C(=C\c3cccc(Oc4ccccc4)c3)S(=O)(=O)C2c2ccccc2)cc1 (stereo unspecified) | > 100 |
| O=c1cnn(C/C=C/CBr)c(=O)[nH]1 | 28.8 |
| CCCCS(=O)CCC(N)P(=O)(O)O (stereo unspecified) | > 100 |

Each molecule was assayed on EKVX NSCLC (assay: NCI anticancer screen, dose series, 48 h).

| SMILES | TGI [µM] |
| --- | --- |
| C1C2CC3CC1CC(Nc1nc(NC45CC6CC(CC(C6)C4)C5)nc(NC45CC6CC(CC(C6)C4)C5)n1)(C2)C3 | > 77.5 |
| COc1cc(/C=C2\C[C@H]3[C@@H]4CCc5cc(O)ccc5[C@H]4CC[C@]3(C)C2=O)cc(OC)c1OC | 23.7 |
| COc1ccc(N2C(=O)CC(C3CC(C(C)(C)C)CCC3=O)C2=O)cc1 (stereo unspecified) | > 100 |
| CC(=O)Nc1ccc(N2C(=O)/C(=C\c3cccc(Oc4ccccc4)c3)S(=O)(=O)C2c2ccccc2)cc1 (stereo unspecified) | > 100 |
| O=c1cnn(C/C=C/CBr)c(=O)[nH]1 | 39.2 |
| CCCCS(=O)CCC(N)P(=O)(O)O (stereo unspecified) | > 100 |
| O=C(O)CCC(=O)c1ccc[nH]1 | > 100 |

These molecules were tested on HOP-62 NSCLC (assay: NCI anticancer screen, dose series, 48 h).

| SMILES | TGI [µM] |
| --- | --- |
| C1C2CC3CC1CC(Nc1nc(NC45CC6CC(CC(C6)C4)C5)nc(NC45CC6CC(CC(C6)C4)C5)n1)(C2)C3 | > 100 |
| COc1cc(/C=C2\C[C@H]3[C@@H]4CCc5cc(O)ccc5[C@H]4CC[C@]3(C)C2=O)cc(OC)c1OC | 27.9 |
| COc1ccc(N2C(=O)CC(C3CC(C(C)(C)C)CCC3=O)C2=O)cc1 (stereo unspecified) | > 100 |
| CC(=O)Nc1ccc(N2C(=O)/C(=C\c3cccc(Oc4ccccc4)c3)S(=O)(=O)C2c2ccccc2)cc1 (stereo unspecified) | > 100 |
| O=c1cnn(C/C=C/CBr)c(=O)[nH]1 | 33.2 |
| CCCCS(=O)CCC(N)P(=O)(O)O (stereo unspecified) | > 100 |
| O=C(O)CCC(=O)c1ccc[nH]1 | > 100 |

What follows are molecules tested on 786-0 renal (assay: NCI anticancer screen, dose series, 48 h).

| SMILES | TGI [µM] |
| --- | --- |
| C1C2CC3CC1CC(Nc1nc(NC45CC6CC(CC(C6)C4)C5)nc(NC45CC6CC(CC(C6)C4)C5)n1)(C2)C3 | > 44.1 |
| COc1cc(/C=C2\C[C@H]3[C@@H]4CCc5cc(O)ccc5[C@H]4CC[C@]3(C)C2=O)cc(OC)c1OC | 57.7 |
| COc1ccc(N2C(=O)CC(C3CC(C(C)(C)C)CCC3=O)C2=O)cc1 (stereo unspecified) | > 100 |
| CC(=O)Nc1ccc(N2C(=O)/C(=C\c3cccc(Oc4ccccc4)c3)S(=O)(=O)C2c2ccccc2)cc1 (stereo unspecified) | > 100 |
| CCCCS(=O)CCC(N)P(=O)(O)O (stereo unspecified) | > 100 |
| O=C(O)CCC(=O)c1ccc[nH]1 | > 100 |

These molecules were tested on HOP-92 NSCLC (assay: NCI anticancer screen, dose series, 48 h).

| SMILES | TGI [µM] |
| --- | --- |
| C1C2CC3CC1CC(Nc1nc(NC45CC6CC(CC(C6)C4)C5)nc(NC45CC6CC(CC(C6)C4)C5)n1)(C2)C3 | > 100 |
| CC(=O)Nc1ccc(N2C(=O)/C(=C\c3cccc(Oc4ccccc4)c3)S(=O)(=O)C2c2ccccc2)cc1 (stereo unspecified) | > 100 |
| O=c1cnn(C/C=C/CBr)c(=O)[nH]1 | 28.7 |
| CCCCS(=O)CCC(N)P(=O)(O)O (stereo unspecified) | > 100 |
| O=C(O)CCC(=O)c1ccc[nH]1 | > 100 |

These molecules were tested on SR leukemia (assay: NCI anticancer screen, dose series, 48 h).

| SMILES | TGI [µM] |
| --- | --- |
| C1C2CC3CC1CC(Nc1nc(NC45CC6CC(CC(C6)C4)C5)nc(NC45CC6CC(CC(C6)C4)C5)n1)(C2)C3 | > 100 |
| COc1cc(/C=C2\C[C@H]3[C@@H]4CCc5cc(O)ccc5[C@H]4CC[C@]3(C)C2=O)cc(OC)c1OC | 10.7 |
| COc1ccc(N2C(=O)CC(C3CC(C(C)(C)C)CCC3=O)C2=O)cc1 (stereo unspecified) | > 100 |
| CC(=O)Nc1ccc(N2C(=O)/C(=C\c3cccc(Oc4ccccc4)c3)S(=O)(=O)C2c2ccccc2)cc1 (stereo unspecified) | > 100 |
| O=c1cnn(C/C=C/CBr)c(=O)[nH]1 | 42.8 |
| CCCCS(=O)CCC(N)P(=O)(O)O (stereo unspecified) | > 100 |
| O=C(O)CCC(=O)c1ccc[nH]1 | > 100 |

Each molecule was assayed on NCI-H522 lung (assay: NCI anticancer screen, dose series, 48 h).

| SMILES | TGI [µM] |
| --- | --- |
| COc1cc(/C=C2\C[C@H]3[C@@H]4CCc5cc(O)ccc5[C@H]4CC[C@]3(C)C2=O)cc(OC)c1OC | 3.95 |
| COc1ccc(N2C(=O)CC(C3CC(C(C)(C)C)CCC3=O)C2=O)cc1 (stereo unspecified) | 32.9 |
| CC(=O)Nc1ccc(N2C(=O)/C(=C\c3cccc(Oc4ccccc4)c3)S(=O)(=O)C2c2ccccc2)cc1 (stereo unspecified) | > 100 |
| O=c1cnn(C/C=C/CBr)c(=O)[nH]1 | 22.9 |
| CCCCS(=O)CCC(N)P(=O)(O)O (stereo unspecified) | > 100 |
| O=C(O)CCC(=O)c1ccc[nH]1 | > 100 |
